According to PMC6719084, “Activating the Intrinsic Pathway of Apoptosis Using BIM BH3 Peptides Delivered by Peptide Amphiphiles with Endosomal Release” (Materials, 2019):

Target: T1, human cathepsin B (Homo sapiens, UniProt P07858)
T1 construct: Cathepsin B purified from human liver (Sigma-Aldrich, St. Louis, MO, USA); purchased Sigma-Aldrich; host or cells: human liver
Test: Fluorogenic cathepsin-cleavage assay (Z-RR-AMC)
Type: biochemical
Conditions: recombinant cathepsin B, in vitro
Source text: The fluorogenic cathepsin-cleavage assay was done as previously described using the cathepsin B cleavage substrate Z-Arg-Arg-7-amido-4-methylcoumarin hydrochloride (Z-RR-AMC; Sigma-Aldrich, St. Louis, MO, USA) and human cathepsin B with or without the cathepsin inhibitor CA-074Me (EMD Millipore, Burlington, MA, USA).

CCCNC(=O)[C@H]1O[C@@H]1C(=O)N[C@H](C(=O)N1CCC[C@H]1C(=O)OC)[C@@H](C)CC [CA-074Me]
inhibition of cathepsin B cleavage of fluorogenic reporter substrate: blocked reporter substrate cleavage
